Test results: patent US9546156B2, “N-bicyclic aryl,N'-pyrazolyl urea, thiourea, guanidine cyanoguanidine compounds as TrkA kinase inhibitors” (Array BioPharma Inc., priority 2012, dated 2017)

Tests used:
Test in all cases: Off-target kinase profiling (KinaseProfiler)
Format in all cases: biochemical
Details in all cases: 10 μM, ATP near Km
[1] = target: T1, NEK11 (Homo sapiens, UniProt Q8NG66)
T1 construct: purchased Millipore, Inc. (KinaseProfiler service)
In short: (§1)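 Percent of control (POC) values, mean of duplicate wells; compound fixed at 10 μM; ATP set close to each kinase's Km.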

[2] = target: T2, CDK2/cyclinE (Homo sapiens, UniProt P24941)
T2 construct: purchased Millipore, Inc. (KinaseProfiler service)
In short: as §1

[3] = target: T3, TEC Activated (Homo sapiens, UniProt P42680)
T3 construct: purchased Millipore, Inc. (KinaseProfiler service)
In short: as §1

[4] = target: T4, BTK (Homo sapiens, UniProt Q06187)
T4 construct: purchased Millipore, Inc. (KinaseProfiler service)
In short: as §1

[5] = target: T5, BLK_m (Mus musculus, UniProt P16277)
T5 construct: purchased Millipore, Inc. (KinaseProfiler service)
In short: as §1

[6] = target: T6, LOK (Homo sapiens, UniProt O94804)
T6 construct: purchased Millipore, Inc. (KinaseProfiler service)
In short: as §1

[7] = target: T7, EphA4 (Homo sapiens, UniProt P54764)
T7 construct: purchased Millipore, Inc. (KinaseProfiler service)
In short: as §1

[8] = target: T8, PKCepsilon (Homo sapiens, UniProt Q02156)
T8 construct: purchased Millipore, Inc. (KinaseProfiler service)
In short: as §1

[9] = target: T9, PKCgamma (Homo sapiens, UniProt P05129)
T9 construct: purchased Millipore, Inc. (KinaseProfiler service)
In short: as §1

[10] = target: T10, EphB1 (Homo sapiens, UniProt P54762)
T10 construct: purchased Millipore, Inc. (KinaseProfiler service)
In short: as §1

[11] = target: T11, CK1gamma3 (Homo sapiens, UniProt Q9Y6M4)
T11 construct: purchased Millipore, Inc. (KinaseProfiler service)
In short: as §1

[12] = target: T12, CAMK2g (Homo sapiens, UniProt Q13555)
T12 construct: purchased Millipore, Inc. (KinaseProfiler service)
In short: as §1

[13] = target: T13, FGFR4 (Homo sapiens, UniProt P22455)
T13 construct: purchased Millipore, Inc. (KinaseProfiler service)
In short: as §1

[14] = target: T14, MINK (Homo sapiens, UniProt Q8N4C8)
T14 construct: purchased Millipore, Inc. (KinaseProfiler service)
In short: as §1

[15] = target: T15, MARK2 (Homo sapiens, UniProt Q7KZI7)
T15 construct: purchased Millipore, Inc. (KinaseProfiler service)
In short: as §1

[16] = target: T16, FAK2 (Homo sapiens, UniProt Q14289)
T16 construct: purchased Millipore, Inc. (KinaseProfiler service)
In short: as §1

[17] = target: T17, CHK1 (Homo sapiens, UniProt O14757)
T17 construct: purchased Millipore, Inc. (KinaseProfiler service)
In short: as §1

[18] = target: T18, PDK1 (Homo sapiens, UniProt O15530)
T18 construct: purchased Millipore, Inc. (KinaseProfiler service)
In short: as §1

[19] = target: T19, MKK4_m (Mus musculus, UniProt P47809)
T19 construct: purchased Millipore, Inc. (KinaseProfiler service)
In short: as §1

[20] = target: T20, MAPKAP-K2 (Homo sapiens, UniProt P49137)
T20 construct: purchased Millipore, Inc. (KinaseProfiler service)
In short: as §1

[21] = target: T21, MSK2 (Homo sapiens, UniProt O75676)
T21 construct: purchased Millipore, Inc. (KinaseProfiler service)
In short: as §1

[22] = target: T22, PKD1 (Homo sapiens, UniProt Q15139)
T22 construct: purchased Millipore, Inc. (KinaseProfiler service)
In short: as §1

[23] = target: T23, TLK2 (Homo sapiens, UniProt Q86UE8)
T23 construct: purchased Millipore, Inc. (KinaseProfiler service)
In short: as §1

[24] = target: T24, ULK2 (Homo sapiens, UniProt Q8IYT8)
T24 construct: purchased Millipore, Inc. (KinaseProfiler service)
In short: as §1

[25] = target: T25, MKNK2 (Homo sapiens, UniProt Q9HBH9)
T25 construct: purchased Millipore, Inc. (KinaseProfiler service)
In short: as §1

[26] = target: T26, PKCbetaII (Homo sapiens, UniProt P05771)
T26 construct: purchased Millipore, Inc. (KinaseProfiler service)
In short: as §1

[27] = target: T27, CDK7/cyclinH/MAT1 (Homo sapiens, UniProt P50613)
T27 construct: purchased Millipore, Inc. (KinaseProfiler service)
In short: as §1

[28] = target: T28, Met (Homo sapiens, UniProt P08581)
T28 construct: purchased Millipore, Inc. (KinaseProfiler service)
In short: as §1

[29] = target: T29, Flt3 (Homo sapiens, UniProt P36888)
T29 construct: purchased Millipore, Inc. (KinaseProfiler service)
In short: as §1

[30] = target: T30, FGFR3 (Homo sapiens, UniProt P22607)
T30 construct: purchased Millipore, Inc. (KinaseProfiler service)
In short: as §1

[31] = target: T31, PKD2 (Homo sapiens, UniProt Q9BZL6)
T31 construct: purchased Millipore, Inc. (KinaseProfiler service)
In short: as §1

[32] = target: T32, PKAC-alpha (Homo sapiens, UniProt P17612)
T32 construct: purchased Millipore, Inc. (KinaseProfiler service)
In short: as §1

[33] = target: T33, EphA7 (Rattus norvegicus, UniProt P54759)
T33 construct: purchased Millipore, Inc. (KinaseProfiler service)
In short: as §1

[34] = target: T34, KIT (Homo sapiens, UniProt P10721)
T34 construct: purchased Millipore, Inc. (KinaseProfiler service)
In short: as §1

[35] = target: T35, LKB1 (Homo sapiens, UniProt Q15831)
T35 construct: purchased Millipore, Inc. (KinaseProfiler service)
In short: as §1

[36] = target: T36, NEK7 (Homo sapiens, UniProt Q8TDX7)
T36 construct: purchased Millipore, Inc. (KinaseProfiler service)
In short: as §1

[37] = target: T37, EphA2 (Homo sapiens, UniProt P29317)
T37 construct: purchased Millipore, Inc. (KinaseProfiler service)
In short: as §1

[38] = target: T38, Pim-2 (Homo sapiens, UniProt Q9P1W9)
T38 construct: purchased Millipore, Inc. (KinaseProfiler service)
In short: as §1

[39] = target: T39, ITK (Homo sapiens, UniProt Q08881)
T39 construct: purchased Millipore, Inc. (KinaseProfiler service)
In short: as §1

[40] = target: T40, JAK2 (Homo sapiens, UniProt O60674)
T40 construct: purchased Millipore, Inc. (KinaseProfiler service)
In short: as §1

[41] = target: T41, IKKalpha (Homo sapiens, UniProt O15111)
T41 construct: purchased Millipore, Inc. (KinaseProfiler service)
In short: as §1

T4 sequence (Q06187 whole entry): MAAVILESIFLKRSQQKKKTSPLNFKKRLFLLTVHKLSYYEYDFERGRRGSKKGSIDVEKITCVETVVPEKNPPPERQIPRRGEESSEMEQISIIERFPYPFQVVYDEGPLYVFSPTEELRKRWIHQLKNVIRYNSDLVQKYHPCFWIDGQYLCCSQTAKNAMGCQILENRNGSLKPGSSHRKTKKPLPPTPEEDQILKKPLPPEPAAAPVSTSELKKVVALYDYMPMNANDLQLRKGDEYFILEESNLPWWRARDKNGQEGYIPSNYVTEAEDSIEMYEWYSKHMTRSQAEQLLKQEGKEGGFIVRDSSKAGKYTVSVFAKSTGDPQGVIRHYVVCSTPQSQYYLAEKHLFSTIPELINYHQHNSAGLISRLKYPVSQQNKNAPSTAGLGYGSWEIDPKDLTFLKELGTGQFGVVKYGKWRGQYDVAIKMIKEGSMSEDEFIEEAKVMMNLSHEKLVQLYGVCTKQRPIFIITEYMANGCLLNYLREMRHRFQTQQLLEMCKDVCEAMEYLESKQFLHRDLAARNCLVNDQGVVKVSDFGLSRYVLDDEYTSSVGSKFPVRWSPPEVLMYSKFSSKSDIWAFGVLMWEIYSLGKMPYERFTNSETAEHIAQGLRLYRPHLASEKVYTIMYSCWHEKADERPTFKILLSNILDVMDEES
T11 sequence (Q9Y6M4 whole entry): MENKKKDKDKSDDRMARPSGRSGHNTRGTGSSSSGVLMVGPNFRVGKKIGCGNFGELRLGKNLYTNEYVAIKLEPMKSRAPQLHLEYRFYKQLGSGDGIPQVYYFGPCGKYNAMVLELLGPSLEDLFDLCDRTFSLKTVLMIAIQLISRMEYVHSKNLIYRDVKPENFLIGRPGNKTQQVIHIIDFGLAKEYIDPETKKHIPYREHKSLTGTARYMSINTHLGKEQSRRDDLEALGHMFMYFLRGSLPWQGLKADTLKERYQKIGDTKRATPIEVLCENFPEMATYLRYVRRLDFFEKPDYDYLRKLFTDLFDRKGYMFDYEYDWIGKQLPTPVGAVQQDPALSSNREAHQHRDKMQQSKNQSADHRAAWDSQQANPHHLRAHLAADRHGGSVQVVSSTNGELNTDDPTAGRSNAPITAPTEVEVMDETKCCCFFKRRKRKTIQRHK
T33 sequence (P54759 577-998 limits assumed): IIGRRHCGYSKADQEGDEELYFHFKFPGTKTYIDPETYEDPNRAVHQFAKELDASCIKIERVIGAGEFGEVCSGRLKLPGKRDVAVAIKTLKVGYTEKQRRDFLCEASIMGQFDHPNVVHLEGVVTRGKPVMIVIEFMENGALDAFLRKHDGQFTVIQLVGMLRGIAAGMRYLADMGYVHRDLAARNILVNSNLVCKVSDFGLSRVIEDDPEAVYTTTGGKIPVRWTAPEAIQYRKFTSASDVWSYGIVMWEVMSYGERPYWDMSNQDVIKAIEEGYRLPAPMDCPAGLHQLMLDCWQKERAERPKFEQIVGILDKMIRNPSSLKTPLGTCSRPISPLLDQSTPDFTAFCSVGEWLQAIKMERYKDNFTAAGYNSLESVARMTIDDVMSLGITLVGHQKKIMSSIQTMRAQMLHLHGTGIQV
T25 sequence (Q9HBH9 whole entry): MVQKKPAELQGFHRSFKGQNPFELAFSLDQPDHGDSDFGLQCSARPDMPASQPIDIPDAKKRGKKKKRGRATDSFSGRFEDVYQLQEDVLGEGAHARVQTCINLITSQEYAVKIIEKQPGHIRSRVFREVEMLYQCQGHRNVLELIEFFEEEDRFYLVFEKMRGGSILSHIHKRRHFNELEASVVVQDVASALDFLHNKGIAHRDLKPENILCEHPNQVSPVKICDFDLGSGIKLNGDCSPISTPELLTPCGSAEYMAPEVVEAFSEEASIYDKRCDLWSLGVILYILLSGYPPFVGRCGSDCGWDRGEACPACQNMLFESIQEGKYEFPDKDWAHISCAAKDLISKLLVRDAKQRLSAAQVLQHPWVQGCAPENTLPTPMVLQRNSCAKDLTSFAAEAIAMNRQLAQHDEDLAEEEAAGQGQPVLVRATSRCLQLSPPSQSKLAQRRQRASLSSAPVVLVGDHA
T29 sequence (P36888 27-993): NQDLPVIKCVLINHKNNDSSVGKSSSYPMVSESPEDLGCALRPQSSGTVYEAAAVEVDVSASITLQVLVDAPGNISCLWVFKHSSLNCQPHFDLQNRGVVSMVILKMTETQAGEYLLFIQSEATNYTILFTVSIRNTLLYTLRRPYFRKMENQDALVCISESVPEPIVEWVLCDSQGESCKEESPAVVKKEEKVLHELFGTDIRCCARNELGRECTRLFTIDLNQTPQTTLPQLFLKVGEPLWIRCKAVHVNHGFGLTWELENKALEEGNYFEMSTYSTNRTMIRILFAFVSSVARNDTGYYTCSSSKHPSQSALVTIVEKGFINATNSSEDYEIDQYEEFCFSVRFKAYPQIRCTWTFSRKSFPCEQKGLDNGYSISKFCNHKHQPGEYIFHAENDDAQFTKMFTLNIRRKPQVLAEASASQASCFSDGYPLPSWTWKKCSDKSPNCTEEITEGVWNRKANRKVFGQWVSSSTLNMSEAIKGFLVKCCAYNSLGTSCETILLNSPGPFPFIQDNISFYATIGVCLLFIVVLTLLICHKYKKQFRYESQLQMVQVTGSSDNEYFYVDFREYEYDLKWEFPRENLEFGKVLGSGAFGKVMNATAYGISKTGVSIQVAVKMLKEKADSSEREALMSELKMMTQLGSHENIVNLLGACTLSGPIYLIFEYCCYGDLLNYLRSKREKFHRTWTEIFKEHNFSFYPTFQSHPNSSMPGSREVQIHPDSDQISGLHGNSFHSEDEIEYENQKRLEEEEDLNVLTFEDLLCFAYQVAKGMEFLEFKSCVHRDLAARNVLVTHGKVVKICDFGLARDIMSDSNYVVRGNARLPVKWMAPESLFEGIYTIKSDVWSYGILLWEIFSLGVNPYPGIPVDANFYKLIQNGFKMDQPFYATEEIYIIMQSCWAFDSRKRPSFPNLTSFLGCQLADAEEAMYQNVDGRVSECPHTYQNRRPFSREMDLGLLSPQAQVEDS
T8 sequence (Q02156 whole entry): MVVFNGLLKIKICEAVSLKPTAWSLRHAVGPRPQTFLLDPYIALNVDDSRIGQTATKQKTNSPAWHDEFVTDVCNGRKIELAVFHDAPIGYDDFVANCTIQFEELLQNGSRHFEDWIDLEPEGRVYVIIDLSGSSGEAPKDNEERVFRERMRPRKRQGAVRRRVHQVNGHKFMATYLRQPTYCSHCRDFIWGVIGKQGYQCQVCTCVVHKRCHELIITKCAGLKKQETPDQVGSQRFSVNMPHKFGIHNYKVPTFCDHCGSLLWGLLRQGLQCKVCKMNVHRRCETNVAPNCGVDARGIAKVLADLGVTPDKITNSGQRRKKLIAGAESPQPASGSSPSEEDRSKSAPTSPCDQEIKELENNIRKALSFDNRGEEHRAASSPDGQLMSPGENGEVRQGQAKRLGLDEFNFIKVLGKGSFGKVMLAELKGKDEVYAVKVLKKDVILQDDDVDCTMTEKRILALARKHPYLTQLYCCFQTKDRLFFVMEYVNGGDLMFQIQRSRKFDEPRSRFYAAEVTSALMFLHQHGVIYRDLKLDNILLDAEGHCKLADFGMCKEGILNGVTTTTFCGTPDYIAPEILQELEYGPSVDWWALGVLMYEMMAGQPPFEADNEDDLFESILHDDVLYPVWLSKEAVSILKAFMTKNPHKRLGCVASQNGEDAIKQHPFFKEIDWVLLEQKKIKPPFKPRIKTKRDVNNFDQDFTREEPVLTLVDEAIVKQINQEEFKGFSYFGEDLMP
T26 sequence (P05771 1-673 isoform P05771-2): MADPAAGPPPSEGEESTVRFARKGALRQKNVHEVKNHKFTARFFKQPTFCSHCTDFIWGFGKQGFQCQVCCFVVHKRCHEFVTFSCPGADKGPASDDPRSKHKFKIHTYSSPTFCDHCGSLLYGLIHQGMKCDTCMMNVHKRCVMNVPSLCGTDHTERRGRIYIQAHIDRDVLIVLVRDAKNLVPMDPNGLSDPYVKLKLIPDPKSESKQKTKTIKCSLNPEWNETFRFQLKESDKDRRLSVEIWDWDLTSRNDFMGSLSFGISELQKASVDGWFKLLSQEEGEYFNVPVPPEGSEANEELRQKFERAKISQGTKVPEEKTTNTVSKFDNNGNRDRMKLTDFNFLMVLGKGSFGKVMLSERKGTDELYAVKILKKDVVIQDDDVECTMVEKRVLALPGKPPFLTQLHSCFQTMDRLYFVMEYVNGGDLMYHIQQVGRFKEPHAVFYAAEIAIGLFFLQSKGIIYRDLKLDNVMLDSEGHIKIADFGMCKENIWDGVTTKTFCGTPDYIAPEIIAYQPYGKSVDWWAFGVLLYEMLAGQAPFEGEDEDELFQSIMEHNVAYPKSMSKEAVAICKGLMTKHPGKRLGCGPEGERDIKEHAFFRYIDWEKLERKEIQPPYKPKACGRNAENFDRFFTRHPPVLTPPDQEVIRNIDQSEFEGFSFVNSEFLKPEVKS
T36 sequence (Q8TDX7 whole entry): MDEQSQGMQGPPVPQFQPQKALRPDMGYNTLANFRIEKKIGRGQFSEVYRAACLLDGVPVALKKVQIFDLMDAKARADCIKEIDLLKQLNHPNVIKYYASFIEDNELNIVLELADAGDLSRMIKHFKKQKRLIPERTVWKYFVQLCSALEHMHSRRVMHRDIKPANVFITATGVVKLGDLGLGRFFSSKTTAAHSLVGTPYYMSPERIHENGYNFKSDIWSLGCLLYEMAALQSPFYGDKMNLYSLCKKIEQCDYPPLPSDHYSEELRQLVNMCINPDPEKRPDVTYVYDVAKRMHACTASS
T38 sequence (Q9P1W9 whole entry): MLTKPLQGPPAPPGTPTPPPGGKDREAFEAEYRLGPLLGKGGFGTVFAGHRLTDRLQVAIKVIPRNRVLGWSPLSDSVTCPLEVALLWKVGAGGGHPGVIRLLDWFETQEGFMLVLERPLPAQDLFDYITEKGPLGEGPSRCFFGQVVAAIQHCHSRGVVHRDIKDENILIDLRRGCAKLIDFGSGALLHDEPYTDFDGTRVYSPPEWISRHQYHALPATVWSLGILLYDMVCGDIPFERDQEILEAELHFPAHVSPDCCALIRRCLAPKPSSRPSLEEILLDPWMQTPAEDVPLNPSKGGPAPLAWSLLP

## COCc1ccc2cccc(NC(=O)Nc3c(C)c(-c4cnn(C)c4)nn3-c3ccccc3)c2c1 [Example 16, 1-(1′,4-dimethyl-1-phenyl-1H,1′H-[3,4′-bipyrazol]-5-yl)-3-(7-(methoxymethyl)naphthalen-1-yl)urea]
[1]
  Avg POC: 116 POC
[2]
  Avg POC: 143 POC
[3]
  Avg POC: 121.5 POC
[4]
  Avg POC: 121.5 POC
[5]
  Avg POC: 106.5 POC
[6]
  Avg POC: 120.5 POC
[7]
  Avg POC: 100.5 POC
[8]
  Avg POC: 137 POC
[9]
  Avg POC: 100.5 POC
[10]
  Avg POC: 122 POC
[11]
  Avg POC: 120 POC
[12]
  Avg POC: 98 POC
[13]
  Avg POC: 129 POC
[14]
  Avg POC: 118.5 POC
[15]
  Avg POC: 114 POC
[16]
  Avg POC: 117.5 POC
[17]
  Avg POC: 139.5 POC
[18]
  Avg POC: 117.5 POC
[19]
  Avg POC: 120.5 POC
[20]
  Avg POC: 128 POC
[21]
  Avg POC: 107 POC
[22]
  Avg POC: 117.5 POC
[23]
  Avg POC: 106 POC
[24]
  Avg POC: 102 POC
[25]
  Avg POC: 118.5 POC
[26]
  Avg POC: 106.5 POC
[27]
  Avg POC: 121.5 POC
[28]
  Avg POC: 130 POC
[29]
  Avg POC: 121.5 POC
[30]
  Avg POC: 122 POC
[31]
  Avg POC: 106 POC
[32]
  Avg POC: 134 POC
[33]
  Avg POC: 107 POC
[34]
  Avg POC: 93.5 POC
[35]
  Avg POC: 111 POC
[36]
  Avg POC: 123 POC
[37]
  Avg POC: 123.5 POC
[38]
  Avg POC: 141.5 POC
[39]
  Avg POC: 131 POC
[40]
  Avg POC: 181 POC
[41]
  Avg POC: 138.5 POC
